Data: patent publication US8017558B2, “Carboxamides for controlling micro-organisms in plant and material protection” (priority 2005, dated 2011)

How the values were obtained:
[1] = logP determination by HPLC on reversed-phase column (C 18), EEC Directive 79/831 Annex V.A8; type: physicochemical; details: for chromatographic logP: reversed-phase HPLC column (C 18)
Protocol: The logP values given in the Tables and Preparation Examples above are determined in accordance with EEC Directive 79/831 Annex V.A8 by HPLC (High Performance Liquid Chromatography) on a reversed-phase column (C 18). Temperature: 43° C. The determination is carried out in the acidic range at pH 2.3 using the mobile phases 0.1% aqueous phosphoric acid and acetonitrile; linear gradient from 10% acetonitrile to 90% acetonitrile. The determination is carried out in the neutral range at pH 7.5 using the mobile phases 0.01-molar aqueous phosphate buffer solution and acetonitrile; linear gradient from 10% acetonitrile to 90% acetonitrile. Calibration is carried out using unbranched alkan-2-ones (having 3 to 16 carbon atoms), with known logP values (determination of the logP values by the retention times using linear interpolation between two successive alkanones).

Sphaerotheca fuliginea = assay: Sphaerotheca Test (cucumber)/protective; type: in vivo; details: protective spray, application rate 100 ppm, evaluation 7 days after inoculation
Protocol: Sphaerotheca Test (Cucumber)/Protective
To produce a suitable preparation of active compound, 1 part by weight of active compound is mixed with the stated amounts of solvents and emulsifier, and the concentrate is diluted with water to the desired concentration.
To test for protective activity, young plants are sprayed with the active compound preparation at the stated application rate. After the spray coating has dried on, the plants are inoculated with an aqueous spore suspension of Sphaerotheca fuliginea. The plants are then placed in a greenhouse at about 23° C. and a relative atmospheric humidity of about 70%.
Evaluation is carried out 7 days after the inoculation. 0% means an efficacy which corresponds to that of the control, whereas an efficacy of 100% means that no infection is observed.

Venturia inaequalis = assay: Venturia Test (apple)/protective; type: in vivo; details: protective spray, application rate 100 ppm, evaluation 10 days after inoculation
Protocol: Venturia Test (Apple)/Protective
(§1) To produce a suitable preparation of active compound, 1 part by weight of active compound is mixed with the stated amounts of solvents and emulsifier and the concentrate is diluted with water to the desired concentration. To test for protective activity, young plants are sprayed with the active compound preparation at the stated application rates. After the spray coating has dried on, the plants are inoculated with an aqueous conidia suspension of the apple scab pathogen Venturia inaequalis and then remain in an incubation cabin at about 20° C. and 100% relative atmospheric humidity for 1 day. The plants are then placed in a greenhouse at about 21° C. and a relative atmospheric humidity of about 90%. Evaluation is carried out 10 days after the inoculation. 0% means an efficacy which corresponds to that of the control, whereas an efficacy of 100% means that no infection is observed.

Botrytis cinerea = assay: Botrytis Test (bean)/protective; type: in vivo; details: protective spray, application rate 250 ppm, evaluation 2 days after inoculation
Protocol: Botrytis Test (Bean)/Protective
To produce a suitable preparation of active compound, 1 part by weight of active compound is mixed with the stated amounts of solvents and emulsifier and the concentrate is diluted with water to the desired concentration. To test for protective activity, young plants are sprayed with the active compound preparation at the stated application rate. After the spray coating has dried on, 2 small pieces of agar colonized by Botrytis cinerea are placed onto each leaf. The inoculated plants are placed in a dark chamber at about 20° C. and 100% relative atmospheric humidity. The size of the infected areas on the leaves is evaluated 2 days after the inoculation. 0% means an efficacy which corresponds to that of the control, whereas an efficacy of 100% means that no infection is observed.

Uromyces appendiculatus = assay: Uromyces Test (bean)/protective; type: in vivo; details: protective spray, application rate 100 ppm, evaluation 10 days after inoculation
Protocol: Uromyces Test (Bean)/Protective
as §1, with “rate.” for “rates.”, “spore” for “conidia”, “bean rust” for “apple scab”, “Uromyces appendiculatus” for “Venturia inaequalis”, “cabinet” for “cabin”

Alternaria solani = assay: Alternaria Test (tomato)/protective; type: in vivo; details: protective spray, application rate 500 ppm, evaluation 7 days after inoculation
Protocol: Alternaria Test (Tomato)/Protective
To produce a suitable preparation of active compound, 1 part by weight of active compound is mixed with the stated amounts of solvent and emulsifier and the concentrate is diluted with water to the desired concentration. To test for protective activity, young tomato plants are sprayed with the active compound preparation at the stated application rate. 1 day after the treatment, the plants are inoculated with a spore suspension of Alternaria solani and then remain at 100% relative atmospheric humidity and 20° C. for 24 h. The plants then remain at 96% relative atmospheric humidity and a temperature of 20° C. Evaluation is carried out 7 days after the inoculation. 0% means an efficacy which corresponds to that of the control, whereas an efficacy of 100% means that no infection is observed.

Pyrenophora teres = Pyrenophora teres Test (barley)/protective; type: in vivo; details: protective spray, application rate 1000 ppm, evaluation 8 days after inoculation
Protocol: Pyrenophora teres Test (Barley)/Protective
(§2) To produce a suitable preparation of active compound, 1 part by weight of active compound is mixed with the stated amounts of solvent and emulsifier and the concentrate is diluted with water to the desired concentration. To test for protective activity, young plants are sprayed with the active compound preparation at the stated application rate. After the spray coating has dried on, the plants are sprayed with a conidia suspension of Pyrenophora teres. The plants remain in an incubation cabin at 20° C. and 100% relative atmospheric humidity for 48 hours. The plants are then placed in a greenhouse at a temperature of about 20° C. and a relative atmospheric humidity of about 80%. Evaluation is carried out 8 days after the inoculation. 0% means an efficacy which corresponds to that of the control, whereas an efficacy of 100% means that no infection is observed.

Puccinia recondita = assay: Puccinia Test (wheat)/protective; type: in vivo; details: protective spray, application rate 1000 ppm, evaluation 10 days after inoculation
Protocol: Puccinia Test (Wheat)/Protective
as §2, with “of Puccinia recondita.” for “of Pyrenophora teres.”, “about 80% to promote the development of rust pustules.” for “about 80%.”, “out 10” for “out 8”

[2] = pH 2.3, 0.1% aqueous phosphoric acid/acetonitrile gradient, 43° C.

COCCSC(=Nc1ccccc1C1CC2CCC1C2)c1cn(C)nc1C(F)F (stereo not drawn) [Compound 3]
logP (pH 2.3) [1, 2]: 4.62

Cn1cc(C(=Nc2ccccc2C2CC3CCC2C3)SCC#N)c(C(F)F)n1 (stereo not drawn) [Compound 6]
logP (pH 2.3) [1, 2]: 4.15

Cn1cc(C(=Nc2ccccc2C2CC3CCC2C3)SCSC#N)c(C(F)F)n1 (stereo not drawn) [Compound 7]
logP (pH 2.3) [1, 2]: 4.55

C#CCSC(=Nc1ccccc1C1CC2CCC1C2)c1cn(C)nc1C(F)F (stereo not drawn) [Compound 8]
logP (pH 2.3) [1, 2]: 4.65

CS/C(=N\c1ccccc1C1CC2CCC1C2)c1cn(C)nc1C(F)F (stereo not drawn) [Compound 9, methyl N-(2-bicyclo[2.2.1]hept-2-ylphenyl)-3-(difluoromethyl)-1-methyl-1H-pyrazole-4-carbimidothioate]
chromatographic logP [1, 2]: 4.75

Cn1cc(C(=Nc2ccccc2C2CC3CCC2C3)SCCO)c(C(F)F)n1 (stereo not drawn) [Compound 10]
logP (pH 2.3) ([1]; pH 2.3): 3.23 | Efficacy in % (Sphaerotheca fuliginea): 100% | Efficacy in % (Venturia inaequalis): 100% | Efficacy in % (Botrytis cinerea): 100% | Efficacy in % (Uromyces appendiculatus): 100% | Efficacy in % (Alternaria solani): 100%

CCOC(=O)CSC(=Nc1ccccc1C1CC2CCC1C2)c1cn(C)nc1C(F)F (stereo not drawn) [Compound 11]
logP (pH 2.3) ([1]; pH 2.3): 4.66 | Efficacy in % (Sphaerotheca fuliginea): 100% | Efficacy in % (Venturia inaequalis): 100% | Efficacy in % (Botrytis cinerea): 100% | Efficacy in % (Uromyces appendiculatus): 100% | Efficacy in % (Alternaria solani): 95% | Efficacy in % (Pyrenophora teres): 100% | Efficacy in % (Puccinia recondita): 100%

Cn1cc(C(=Nc2ccccc2C2CC3CCC2C3)SCc2ccc(Cl)nc2)c(C(F)F)n1 (stereo not drawn) [Compound 12]
logP (pH 2.3) [1, 2]: 4.95

CCCCCCCCCCCCSC(=Nc1ccccc1C1CC2CCC1C2)c1cn(C)nc1C(F)F (stereo not drawn) [Compound 13]
logP (pH 2.3) [1, 2]: 7.36

Cn1cc(C(=Nc2ccccc2C2CC3CCC2C3)SC(=O)C(C)(C)C)c(C(F)F)n1 (stereo not drawn) [Compound 18]
logP (pH 2.3) [1, 2]: 5.81

CCC1(C(=O)SC(=Nc2ccccc2C2CC3CCC2C3)c2cn(C)nc2C(F)F)C(C)C1(Cl)Cl (stereo not drawn) [Compound 19]
logP (pH 2.3) ([1]; pH 2.3): 6.52 | Efficacy in % (Venturia inaequalis): 99% | Efficacy in % (Uromyces appendiculatus): 96% | Efficacy in % (Alternaria solani): 90% | Efficacy in % (Pyrenophora teres): 92% | Efficacy in % (Puccinia recondita): 93%

Cn1cc(C(=Nc2ccccc2C2CC3CCC2C3)SC(=O)C2(C)CCCCC2)c(C(F)F)n1 (stereo not drawn) [Compound 20]
logP (pH 2.3) ([1]; pH 2.3): 6.66 | Efficacy in % (Sphaerotheca fuliginea): 100% | Efficacy in % (Venturia inaequalis): 100% | Efficacy in % (Uromyces appendiculatus): 99% | Efficacy in % (Alternaria solani): 80% | Efficacy in % (Pyrenophora teres): 100% | Efficacy in % (Puccinia recondita): 100%

Cc1nn(C)c(F)c1C(=S)Nc1ccccc1C(C)CC(C)(C)C (stereo not drawn) [II-1]
logP (at pH 7.5) ([1]; pH 7.5, 0.01-molar aqueous phosphate buffer/acetonitrile gradient, 43° C.): 3.70 (at pH 7.5)

Cn1cc(C(=S)Nc2ccccc2C2CC3CCC2C3)c(C(F)F)n1 (stereo not drawn) [II-7, N-(2-bicyclo[2.2.1]hept-2-ylphenyl)-3-(difluoromethyl)-1-methyl-1H-pyrazole-4-thiocarboxamide]
chromatographic logP [1, 2]: 3.66

Cn1cc(C(=NNc2ccccc2)Nc2ccccc2C2CC3CCC2C3)c(C(F)F)n1 (stereo not drawn) [II-8, N-(2-bicyclo[2.2.1]hept-2-ylphenyl)-3-(difluoromethyl)-1-methyl-N′-phenyl-1H-pyrazole-4-carbohydrazonamide]
chromatographic logP [1, 2]: 3.66

Cn1cc(C(=NO)Nc2ccccc2C2CC3CCC2C3)c(C(F)F)n1 (stereo not drawn) [II-9]
logP (pH 2.3) [1, 2]: 2.88
